Measured values published in patent publication US20230348493A1, “COMPOUND FOR ADJUSTING ACTIVITY OF NMDA RECEPTOR, AND PHARMACEUTICAL COMPOSITION AND USE THEREOF” (BEIJING GREATWAY PHARMACEUTICAL TECHNOLOGY CO., LTD., priority 2020, published 2023).
Like-named read-outs stand apart in the source and are kept apart here.

Tests used:
NMDA receptor [1] = molecular target: T1, NMDA receptor (Rattus norvegicus, UniProt P35439); assay: NMDA receptor agonistic properties in rat crude synaptosomal proteins (maximum [3H]-MK-801 binding vs 1 mM glycine); type: biochemical; conditions: maximum [3H]-MK-801 binding % relative to 1 mM glycine; 50 μM glutamic acid
T1 construct: After the rats were decapitated, the prefrontal cortex and hippocampus were rapidly separated on ice; from tissue; host or cells: SD male rat prefrontal cortex and hippocampus, crude synaptosomes
Method: (§1) After the rats were decapitated, the prefrontal cortex and hippocampus were rapidly separated on ice and weighed, 10 volumes of 50 mM Tris-HCl buffer (50 mM Tris-HCl, 5 mM MgCl2·6H2O, 1 mM EDTA, 0.5% (W/V) BSA, 1 mM PMSF, 0.32 M sucrose, pH 7.4) was added, and the mixture was homogenized for five times at 1500 revolutions/min with 30 s each time. A homogenate was centrifuged for 10 min at 1000×g, and a supernatant was taken and centrifuged for 10 min at 40,000×g, the precipitates were collected, re-suspended with volumes of Tris-HCl buffer, incubated at 37° C. for 10 min, and centrifuged for 10 min at 40,000×g, finally the precipitates were re-suspended with the above buffer, aliquoted and stored at −80° C. for later use.
(3) Detection of Influence of Tested Medicines on NMDA Receptor Agonistic Properties in Rat Crude Synaptosomal Proteins
100 μg of rat crude synaptosomal proteins was added to all tubes respectively. 50 μl of 5,7-dichlorokynurenic acid was added to a non-specific binding tube to achieve a final concentration of 10 μM. All tubes were preloaded with 50 μM of glutamic acid, and the materials were reacted for 15 min in advance. 20 μL of control drug at corresponding concentration was added to the test tube, and then reacted for 15 min. 1 mM glycine was added to the maximum reaction tube. A volume of 30 μl of labeled ligand [^3H]-MK-801 was successively added to all tubes to achieve a final concentration of 10 nM, and reacted for 15 min. All reaction tubes were supplemented to a volume of 500 μl with 50 mM Tris-HCl buffer (50 mM Tris-HCl, 5 mM MgCl2·6H2O, 1 mM EDTA, 0.5% (WN) BSA, 0.1% NaN3, pH 7.4). A reaction was carried out at 37° C. for 15 min. A type-49 glass fiber filter membrane was prepared and a sample was applied at the same time. The filter membrane was placed in a multi-head cell collector, and the reaction system was subjected to suction filtration under negative pressure and washed with an ice-cold 50 mM Tris-HCl buffer, 10 ml each time, for a total of 5 times. After suction drying, 1 ml of scintillation liquid was added to the filter membrane, the filter membrane was placed on the shaker for shaking for 1.5 h and then placed in the liquid scintillation counter on the next day to determine the radioactive intensity.
In an agonistic experiment, maximum [^3H]-MK-801 binding %=((tested compounds cpm−5,7 dichlorokynurenic acid cpm)/(1 mM glycine cpm−5,7 dichlorokynurenic acid cpm))×100%.

NMDA receptor [2] = molecular target: T1, NMDA receptor; assay: Inhibition of [3H]-MK-801 binding to rat crude synaptosomes (receptor ligand binding assay)
Method: The affinity of the tested compounds on NMDA receptor was researched by receptor ligand binding assays.
Ten SD male rats of SPF grade were ordered and acclimated for 7 days for future use.
as §1
(2) Detection of Inhibitory Function of Tested Medicines on Binding of Crude Synaptosomes in Rats to [^3H]-MK-801
50 μg of rat crude synaptosomal proteins was added to all tubes respectively. A volume of 50 μl of MK-801 (dizocilpine) was added to a non-specific binding tube to achieve a final concentration of 100 μM, and the materials were reacted for 15 min in advance. 20 μL of control drug at corresponding concentration was added to the test tube for reaction for 15 min. A volume of 30 μl of labeled ligand [^3H]-MK-801 was successively added to all tubes to achieve a final concentration of 10 nM. All reaction tubes were supplemented to a volume of 200 μl with 50 mM Tris-HCl buffer (50 mM Tris-HCl, 5 mM MgCl2·6H2O, 1 mM EDTA, 0.5% (WN) BSA, 0.1% NaN3, pH 7.4). A reaction was carried out at 37° C. for 10 min. A type-49 glass fiber filter membrane was prepared and a sample was applied at the same time. The filter membrane was placed in a multi-head cell collector, and a reaction system was subjected to suction filtration under negative pressure and washed with an ice-cold 50 mM Tris-HCl buffer, 10 ml each time, for a total of 5 times. After suction drying, 1 ml of scintillation liquid was added to the filter membrane, the filter membrane was placed on a shaker for shaking for 1.5 h and then placed in a liquid scintillation counter on the next day to determine the radioactive intensity.
GraphPad5.0 software was used to analyze the data, and the percentage of competitive inhibition was calculated through nonlinear fitting, wherein:
Percentage of competitive inhibition %=((total binding tube cpm−compound cpm)/(total binding tube cpm−non-specific binding tube cpm))×100%;
Specific binding amount=total binding amount−non-specific binding amount, wherein each binding site was determined by double compound tubes.

[3] = In-vivo metabolism (pharmacokinetic) study in rats, oral / tail intravenous; conditions: rat, plasma; for AUC(0-t) / Cmax: male SD rats
Method: The pharmacokinetic parameters such as exposure of plasma concentrations of the compounds of examples were evaluated by oral/tail intravenous injection model tests in rats in order to evaluate the in-vivo metabolic stability in rats.
The male SD rats weighing 200±20 g and being SPF grade were used in this experiment and purchased from SPF.
Preparation of intravenous solution: 1 mg of each tested medicine was weighed accurately, and a volume was metered to 5 mL with 0.9% sodium chloride solution to prepare 0.2 mg/mL. A dose volume was 1 mL for per 200 g of weight, and the dose was 1 mg for per 1 kg of weight based on the concentration conversion.
Preparation of intragastric solution: 10 mg of each tested medicine was accurately weighed, and a volume was metered to 10 mL with 0.9% sodium chloride solution to prepare 1 mg/mL of the solution. A dose volume was 2 mL for per 200 g of weight, and the dose was 10 mg for per 1 kg of weight based on the concentration conversion.
Rats were randomly divided into 8 groups, 6 rats were in each group, oral gavage administration and tail intravenous administration were performed according to the above doses. About 0.2 mL of orbital blood was collected before administration and at 2 min, 5 min, 15 min, 30 min, 1 h, 2 h, 3 h, 4 h and 6 h after administration, respectively, and centrifuged at 3000 rpm for 10 min at 4° C., and a supernatant was taken for LC/MS/MS determination. A DAS pharmacokinetics program was used to analyze the measured data and calculate the main pharmacokinetic parameters.

[4] = affinity on NMDA, [3H]-MK-801 10 nM, rat prefrontal cortex and hippocampus crude synaptosomes, read-out: IC50

C[C@@H](O)[C@H](N)C(=O)N1CCC2(CC1)N[C@H](C(N)=O)CS2.Cl [A-274]
Maximum agonistic efficacy (%) (NMDA receptor [1]): 55%
IC50 (NMDA receptor [2]; [4]): 0.28 nM
bioavailability ([3]; male, SD, oral 10 mg/kg vs intravenous 1 mg/kg, rats): 62.7%
AUC(0-t) ([3]; Intravenous injection, 1 mg/kg): 1630 ng·h/mL
Cmax ([3]; Intravenous injection, 1 mg/kg): 2480 ng/mL
AUC(0-t) ([3]; Oral, 10 mg/kg): 3350 ng·h/mL
Cmax ([3]; Oral, 10 mg/kg): 1880 ng/mL

CC(=O)N1CC2(C1)SCCN2C(C)=O [A-059]
Maximum agonistic efficacy (%) (NMDA receptor [1]): 33%
IC50 (NMDA receptor [2]; [4]): 0.75 nM

C[C@@H](O)[C@H](N)C(=O)N1CCC2(C1)SCCN2C(=O)[C@@H](N)[C@@H](C)O.Cl (stereo partly drawn) [A-353]
Maximum agonistic efficacy (%) (NMDA receptor [1]): 53%
IC50 (NMDA receptor [2]; [4]): 0.48 nM

Cl.NC(=O)[C@@H]1CSC2(CCN(C(=O)[C@@H](N)CO)CC2)N1 [A-275]
Maximum agonistic efficacy (%) (NMDA receptor [1]): 12%
IC50 (NMDA receptor [2]; [4]): 0.35 nM

Cl.N[C@@H](CO)C(=O)N1CC2(C1)SCCN2Cc1ccccc1 [A-195]
Maximum agonistic efficacy (%) (NMDA receptor [1]): 46%
IC50 (NMDA receptor [2]; [4]): 0.43 nM

COC(=O)[C@@H]1CSC2(CCN(C(=O)[C@@H](N)[C@@H](C)O)CC2)N1.Cl [A-291]
Maximum agonistic efficacy (%) (NMDA receptor [1]): 13%
IC50 (NMDA receptor [2]; [4]): 0.88 nM

CC(C)C(=O)N1CCSC12CCCN(C(=O)[C@@H](N)[C@@H](C)O)C2.Cl (stereo partly drawn) [A-122]
Maximum agonistic efficacy (%) (NMDA receptor [1]): 38%
IC50 (NMDA receptor [2]; [4]): 1.65 nM

C[C@@H](O)[C@H](N)C(=O)N1CC2(C1)SCCN2C(=O)C(C)(C)C.Cl [A-130]
Maximum agonistic efficacy (%) (NMDA receptor [1]): 43%
IC50 (NMDA receptor [2]; [4]): 0.48 nM

CC(C)(C)OC(=O)N1CCC2(C1)NCCS2 (stereo not drawn) [A-016]
Maximum agonistic efficacy (%) (NMDA receptor [1]): 56%
IC50 (NMDA receptor [2]; [4]): 0.35 nM

C[C@@H](O)[C@H](N)C(=O)N1CCC2(C1)SCCN2C.Cl (stereo partly drawn) [A-234]
Maximum agonistic efficacy (%) (NMDA receptor [1]): 75%
IC50 (NMDA receptor [2]; [4]): 1.58 nM

CC(=O)N1CCCC2(C1)SCCN2C(=O)C(C)C (stereo not drawn) [A-119]
Maximum agonistic efficacy (%) (NMDA receptor [1]): 35%
IC50 (NMDA receptor [2]; [4]): 1.89 nM

C[C@@H](O)[C@H](N)C(=O)N1CC2(C1)SCCN2C.Cl [A-226]
Maximum agonistic efficacy (%) (NMDA receptor [1]): 45%
IC50 (NMDA receptor [2]; [4]): 0.33 nM

C[C@@H](O)[C@H](N)C(=O)N1CCC2(C1)N[C@H](C(N)=O)CS2.Cl (stereo partly drawn) [A-266]
Maximum agonistic efficacy (%) (NMDA receptor [1]): 45%
IC50 (NMDA receptor [2]; [4]): 3.2 nM

CC(C)CN1CCSC12CN(C(=O)[C@@H](N)[C@@H](C)O)C2.Cl [A-162]
Maximum agonistic efficacy (%) (NMDA receptor [1]): 38%
IC50 (NMDA receptor [2]; [4]): 0.45 nM

C[C@@H](O)[C@H](N)C(=O)N1CCCC2(C1)SCCN2C(=O)[C@@H](N)[C@@H](C)O.Cl (stereo partly drawn) [A-367]
Maximum agonistic efficacy (%) (NMDA receptor [1]): 39%
IC50 (NMDA receptor [2]; [4]): 0.29 nM

C[C@@H](O)[C@H](NC(=O)[C@@H]1CSC2(CNC2)N1)C(N)=O.Cl [A-370]
Maximum agonistic efficacy (%) (NMDA receptor [1]): 46%
IC50 (NMDA receptor [2]): 0.36 nM

C[C@@H](O)[C@H](NC(=O)[C@@H]1CSC2(CCNCC2)N1)C(N)=O.Cl [A-390]
Maximum agonistic efficacy (%) (NMDA receptor [1]): 55%
IC50 (NMDA receptor [2]; [4]): 0.39 nM

C[C@@H](O)[C@H](N)C(=O)N1CCC2(C1)N[C@H](C(=O)N1CCN(C)CC1)CS2.Cl (stereo partly drawn) [A-429]
Maximum agonistic efficacy (%) (NMDA receptor [1]): 57%
IC50 (NMDA receptor [2]; [4]): 0.66 nM

C[C@@H](O)[C@H](N)C(=O)N1CCC2(CC1)N[C@H](C(=O)N[C@H](C(N)=O)[C@@H](C)O)CS2.Cl [A-394]
Maximum agonistic efficacy (%) (NMDA receptor [1]): 63%
IC50 (NMDA receptor [2]; [4]): 0.79 nM

C[C@@H](O)[C@H](N)C(=O)N1CCC2(C1)N[C@H](C(=O)N1CCCCC1)CS2.Cl (stereo partly drawn) [A-421]
Maximum agonistic efficacy (%) (NMDA receptor [1]): 45%
IC50 (NMDA receptor [2]; [4]): 0.38 nM

CC(C)C(=O)N1CCC2(CC1)N[C@H](C(N)=O)CS2 [A-272]
Maximum agonistic efficacy (%) (NMDA receptor [1]): 19%
IC50 (NMDA receptor [2]; [4]): 0.54 nM

CC(=O)N1[C@H](C(N)=O)CSC12CN(C(=O)[C@@H](N)C(C)O)C2.Cl (stereo partly drawn) [A-335]
Maximum agonistic efficacy (%) (NMDA receptor [1]): 42%
IC50 (NMDA receptor [2]; [4]): 0.48 nM

C[C@@H](O)[C@H](N)C(=O)N1CCCC2(C1)N[C@H](C(N)=O)CS2.Cl (stereo partly drawn) [A-282]
Maximum agonistic efficacy (%) (NMDA receptor [1]): 35%
IC50 (NMDA receptor [2]; [4]): 0.32 nM

CC(=O)N1CC2(C1)SCCN2C(=O)[C@@H](N)CC(N)=O.Cl [A-342]
Maximum agonistic efficacy (%) (NMDA receptor [1]): 32%
IC50 (NMDA receptor [2]; [4]): 0.56 nM

CC(=O)N1CCSC12CCN(C(=O)OC(C)(C)C)CC2 [A-078]
Maximum agonistic efficacy (%) (NMDA receptor [1]): 56%
IC50 (NMDA receptor [2]; [4]): 1.59 nM

CC(=O)N1CCC2(CC1)SCCN2C(=O)C(C)C [A-111]
Maximum agonistic efficacy (%) (NMDA receptor [1]): 38%
IC50 (NMDA receptor [2]; [4]): 1.58 nM

CC(C)[C@H](N)C(=O)N1CCSC12CN(C(=O)[C@@H](N)[C@@H](C)O)C2.Cl [A-331]
Maximum agonistic efficacy (%) (NMDA receptor [1]): 31%
IC50 (NMDA receptor [2]; [4]): 0.59 nM

CC(C)[C@H](N)C(=O)N1CCC2(CC1)NCCS2.Cl [A-036]
Maximum agonistic efficacy (%) (NMDA receptor [1]): 28%
IC50 (NMDA receptor [2]; [4]): 0.89 nM

CC(=O)N1CCC2(CC1)SCCN2C(C)=O [A-079]
Maximum agonistic efficacy (%) (NMDA receptor [1]): 41%
IC50 (NMDA receptor [2]; [4]): 1.25 nM

CC(=O)N1CCSC12CN(C(=O)[C@@H](N)C(C)C)C2.Cl [A-068]
Maximum agonistic efficacy (%) (NMDA receptor [1]): 48%
IC50 (NMDA receptor [2]; [4]): 1.3 nM

C[C@@H](O)[C@H](N)C(=O)N1CCCC2(C1)N[C@H](C(=O)N[C@H](C(N)=O)[C@@H](C)O)CS2.Cl (stereo partly drawn) [A-401]
Maximum agonistic efficacy (%) (NMDA receptor [1]): 75%
IC50 (NMDA receptor [2]; [4]): 0.44 nM

CC(=O)N1CCC2(C1)N[C@H](C(=O)N[C@H](C(N)=O)[C@@H](C)O)CS2.Cl (stereo partly drawn) [A-384]
Maximum agonistic efficacy (%) (NMDA receptor [1]): 39%
IC50 (NMDA receptor [2]; [4]): 0.42 nM
